One data set concerns DMS 273. The data set is described as follows: in vitro small cell lung cancer cell growth inhibition (NCI screen). In kind it is cell-based. The note with it: Homo sapiens, read-out: cytotoxicity log GI50 (converted).
A further data set deals with DMS 114. Described as above. The format is cell-based, human. The settings on record: for GI50: Homo sapiens, read-out: cytotoxicity log GI50 (converted).

Broadly, the GI50 is the concentration giving 50% growth inhibition. Take `CCC(C)n1c(C)nc2c1C(=O)c1ccccc1C2=O` (centres unmarked) [Compound 6]: the GI50 in the data set with DMS 273 was 33.9 µM.
On the same count and under the same terms, in the case of `CCC(C)(C)n1c(C)nc2c1C(=O)c1ccccc1C2=O` [Compound 12] it was 11.7 µM.
For the compound `CCC(C)NC1=C(NC(C)=O)C(=O)c2ccccc2C1=O` (centres unmarked) [Compound 30], the results for the GI50 in the data set with DMS 273 and in the data set with DMS 114 were 27.5 µM and 28.2 µM, respectively.
In the case of `CCC(CC)n1c(C)nc2c1C(=O)c1ccccc1C2=O` [Compound 10], in the data set with DMS 273, the concentration for 50% growth inhibition (GI50) is 22.9 µM.
With `O=C(Cc1ccccc1F)NC1=C(Cl)C(=O)c2ccccc2C1=O` [Compound 2i, 2-(2-Fluorophenyl)acetamido-3-chloro-1,4-naphthoguinone], the GI50 in the data set on DMS 114 is 0.174 µM.
As for `COc1ccc(Cn2c(C)nc3c2C(=O)c2ccccc2C3=O)cc1` [Compound 18], the 50% growth inhibitory concentration (GI50) in the data set on DMS 273 is 3.31 µM.
Still for that read-out and setting: in the case of `Cc1nc2c(n1CC(C)C)C(=O)c1ccccc1C2=O` [Compound 7] it was 26.9 µM.
Consider `Cc1nc2c(n1CCO)C(=O)c1ccccc1C2=O` [Compound 16], for which the 50% growth inhibitory concentration (GI50) in the data set with DMS 273 is 20 µM.
In the case of `CCC(C)Cn1c(C)nc2c1C(=O)c1ccccc1C2=O` (centres unmarked) [Compound 13], the GI50 in the data set with DMS 273 is 9.77 µM.
For the compound `Cc1nc2c(n1CCC(C)C)C(=O)c1ccccc1C2=O` [Compound 11], the concentration for 50% growth inhibition (GI50) in the data set with DMS 273 is 11 µM.
Take `CC(=O)NC1=C(NCC(C)C)C(=O)c2ccccc2C1=O` [Compound 31]: the figures for the 50% growth inhibitory concentration (GI50) with DMS 273 and in the data set on DMS 114 were 14.5 µM and 14.8 µM, respectively.
`Cc1nc2c(n1Cc1ccc(F)cc1)C(=O)c1ccccc1C2=O` [Compound 19]: the concentration for 50% growth inhibition (GI50) with DMS 273 is 6.46 µM.
On to `Cc1ccc(Cn2c(C)nc3c2C(=O)c2ccccc2C3=O)cc1` [Compound 17], for which the 50% growth inhibitory concentration (GI50) in the data set on DMS 273 is 1.07 µM.
On the same count and under the same terms, in the case of `Cc1nc2c(n1Cc1ccc(Cl)cc1)C(=O)c1ccccc1C2=O` [Compound 20] it was 2.63 µM.
As to `CCn1c(C)nc2c1C(=O)c1ccccc1C2=O` [Compound 5, 1-ethyl-2-methylnaphth-[2,3-d]imidazole-4,9-dione], in the data set with DMS 273, the concentration for 50% growth inhibition (GI50) was 1.66 µM. Also, in the data set with DMS 114, the “cytotoxicity log GI50” value was -6.56 M and the 50% growth inhibitory concentration (GI50) was 0.275 µM.
Turning to `Cc1nc2c(n1C(C)(C)C)C(=O)c1ccccc1C2=O` [Compound 8], the GI50 in the data set with DMS 273 was 52.5 µM.
Still for that read-out and setting: in the case of `CCn1c(Cc2ccc(F)cc2)nc2c1C(=O)c1ccccc1C2=O` [Compound 66] it was 9.77 µM.
As to `O=C1c2ccccc2C(=O)c2[nH]c(Cc3ccccc3F)nc21` [Compound 4b], the GI50 in the data set on DMS 273 was 34.7 µM; with DMS 114 it was 33.9 µM.
With `CC(=O)NC1=C(NCCN(C)C)C(=O)c2ccccc2C1=O` [Compound 39], the GI50 with DMS 273 was 11.7 µM.
The same measure, in the same setting: in the case of `NC1=C(NC(=O)Cc2ccc(F)cc2)C(=O)c2ccccc2C1=O` [Compound 3c] it was 33.9 µM; in that of `CCCC(C)n1c(C)nc2c1C(=O)c1ccccc1C2=O` (centres unmarked) [Compound 9], 7.24 µM.

These data come from patent US5789431A, “Naphthoquinone antitumor compound and method” (The University of North Carolina at Chapel Hill, priority 1996, dated 1998).
